# Paper PMC5394417, “Investigating the molecular mechanism of positive and negative allosteric modulators in the calcium-sensing receptor dimer” (Scientific Reports, 2017)
# Molecular target: T1, HA-D190A CaSR mutant (Rattus norvegicus, UniProt P48442, D190A)
# T1 construct: mGluR5 signal peptide (N); expressed in transfected cells; host or cells: HEK293T
# T1 sequence (P48442 20-1079 D190A): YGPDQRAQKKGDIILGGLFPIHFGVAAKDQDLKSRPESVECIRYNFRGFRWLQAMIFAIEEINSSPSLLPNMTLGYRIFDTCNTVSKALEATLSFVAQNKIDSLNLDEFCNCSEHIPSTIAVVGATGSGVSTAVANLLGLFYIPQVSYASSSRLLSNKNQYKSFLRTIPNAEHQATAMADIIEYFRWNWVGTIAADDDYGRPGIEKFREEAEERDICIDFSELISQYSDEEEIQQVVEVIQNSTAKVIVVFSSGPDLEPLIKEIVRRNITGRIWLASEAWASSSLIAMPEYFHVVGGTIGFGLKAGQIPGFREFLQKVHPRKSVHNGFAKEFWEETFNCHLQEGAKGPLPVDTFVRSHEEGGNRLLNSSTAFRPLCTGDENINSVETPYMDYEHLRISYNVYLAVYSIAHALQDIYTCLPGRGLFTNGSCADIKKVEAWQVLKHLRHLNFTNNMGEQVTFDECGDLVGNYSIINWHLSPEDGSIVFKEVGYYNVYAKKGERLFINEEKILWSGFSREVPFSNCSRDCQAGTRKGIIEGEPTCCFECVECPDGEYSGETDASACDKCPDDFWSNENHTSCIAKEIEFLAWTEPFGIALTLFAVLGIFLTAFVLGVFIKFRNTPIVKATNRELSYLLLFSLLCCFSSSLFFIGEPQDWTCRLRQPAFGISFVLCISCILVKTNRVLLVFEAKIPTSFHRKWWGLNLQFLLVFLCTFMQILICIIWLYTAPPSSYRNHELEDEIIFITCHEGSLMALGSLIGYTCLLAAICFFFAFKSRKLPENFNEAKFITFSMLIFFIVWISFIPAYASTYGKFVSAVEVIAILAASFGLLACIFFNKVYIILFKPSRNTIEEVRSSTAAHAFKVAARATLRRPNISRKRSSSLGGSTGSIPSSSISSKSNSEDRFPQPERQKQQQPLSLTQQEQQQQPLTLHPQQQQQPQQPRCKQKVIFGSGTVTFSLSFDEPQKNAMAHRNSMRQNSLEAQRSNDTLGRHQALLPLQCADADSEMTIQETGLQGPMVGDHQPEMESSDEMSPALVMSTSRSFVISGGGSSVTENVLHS
# Assay: IP-One assay, HEK293T transiently transfected
# Assay type: cell-based
structure (smiles),measurement,setting,value
[Ca+2] [Ca^2+],EC50,Ca^2+ alone,17.8 mM
same,Hill coefficient ± S.E.M.,Ca^2+ alone,3.77 ± 0.39
same,pEC50 ± S.E.M.,Ca^2+ alone,1.75 ± 0.01
same,Max ± S.E.M.,normalized to maximum response of WT CaSR,110 ± 11%
